According to publication PMC4879574, “Identification of Leishmania donovani Topoisomerase 1 inhibitors via intuitive scaffold hopping and bioisosteric modification of known Top 1 inhibitors” (Scientific Reports, 2016):
Where “and” joins values, the source holds several entries; their conditions need not be identical. Identical values can stand only once. Like-named read-outs stand apart in the source and are kept apart here.

Key:
[1] = target: LdTop1 (Leishmania donovani, UniProt A0A3Q8IHS4+Q8WQM6); assay: Preincubation DNA relaxation inhibition assay, LdTop1; format: biochemical
Method: To interrogate whether compound 4 interacts with the enzyme, it was preincubated with LdTop1 at different concentration for 5 minutes at 37 °C before the addition of substrate DNA (Fig. 9a).
(§1) All the experiments were conducted thrice and representative data from once set of them are expressed as mean ± SD.
(§2) The type I DNA topoisomerase are assayed by decreased mobility of the relaxed isomers of supercoiled pBS (SK^+) [pBlue-script (SK^+)] DNA in agarose gel. The relaxation assay was carried out as described previously with LdTop1B and HTop I, diluted in the relaxation buffer (25 mM Tris–HCl, pH 7.5, 5% glycerol, 0.5 mM DTT, 10 mM MgCl2, 50 mM KCl, […] and […] BSA) and supercoiled plasmid pBS (SK^+) DNA (85–95% were negatively supercoiled, with remainder being nicked circles)[9][28][29]. The reconstituted enzyme LdTop1B was assayed at 50 mM KCl concentration as described before. For all kinetic studies, the reaction mixtures containing the buffer and DNA were heated to 37 °C before addition of the enzymes. The reactions were rapidly quenched using stop solution and kept on ice. The gels were stained with ethidium bromide (EtBr) ([…]) and the amount of supercoiled monomer DNA band fluorescence were quantified by integration using Gel Doc 2000 under UV illumination (Bio-Rad Quantity One Software), as described previously.

[2] = target: Leishmania donovani Topoisomerase 1 (LdTop1) (Leishmania donovani, UniProt A0A3Q8IHS4+Q8WQM6); assay: Plasmid DNA relaxation assay, LdTop1 (simultaneous incubation); format: biochemical
Method: To investigate the inhibitory effect of our library compounds on the DNA relaxation activity of the recombinant Human and Leishmania topoisomerase 1 (Table 2), assays were performed involving supercoiled plasmid DNA, the enzymes (HTop1 and LdTop1) and our molecules. The enzymes were purified by the standard literature procedure.
as §1, §2
Cells harvested from 1 litre of culture were separately lysed by lysozyme/sonication, and the proteins were purified through Ni-NTA (Ni^2+-nitriloacetate-agarose column (Qiagen, Hilden, Germany) followed by a phospho-cellulose column (P11 cellulose; Whatman, Maidstone Kent, UK) as described previously. Finally, the purified proteins LdTOP1L and LdTOP1S were stored at −70 °C. The concentrations of each protein were quantified by using Bradford Reagent (PIERCE, Thermo Fisher Scientific Inc., Rockford, USA). Purified LdTOP1L was mixed with purified LdTOP1S at a molar ratio of 1:1 to a total protein concentration of 0.5 mg/ml in reconstitution buffer [50 mM potassium phosphate, pH 7.5, 0.5 mM DTT, 1 mM EDTA, 0.1 mM PMSF and 10% (v/v) glycerol]. The mixture was dialyzed overnight at 4 °C and dialyzed fractions were used for plasmid relaxation activity.

Chain of Leishmania donovani Topoisomerase 1 (LdTop1) (Q8WQM6 entry or part of it): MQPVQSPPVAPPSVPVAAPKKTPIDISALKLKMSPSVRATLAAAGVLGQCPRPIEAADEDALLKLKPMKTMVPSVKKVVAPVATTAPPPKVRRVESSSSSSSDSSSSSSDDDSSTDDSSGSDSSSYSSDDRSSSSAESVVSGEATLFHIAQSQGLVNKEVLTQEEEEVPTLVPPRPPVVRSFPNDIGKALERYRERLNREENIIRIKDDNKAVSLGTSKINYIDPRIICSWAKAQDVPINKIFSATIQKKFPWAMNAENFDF
Chain of Leishmania donovani Topoisomerase 1 (LdTop1) (A0A3Q8IHS4 entry or part of it): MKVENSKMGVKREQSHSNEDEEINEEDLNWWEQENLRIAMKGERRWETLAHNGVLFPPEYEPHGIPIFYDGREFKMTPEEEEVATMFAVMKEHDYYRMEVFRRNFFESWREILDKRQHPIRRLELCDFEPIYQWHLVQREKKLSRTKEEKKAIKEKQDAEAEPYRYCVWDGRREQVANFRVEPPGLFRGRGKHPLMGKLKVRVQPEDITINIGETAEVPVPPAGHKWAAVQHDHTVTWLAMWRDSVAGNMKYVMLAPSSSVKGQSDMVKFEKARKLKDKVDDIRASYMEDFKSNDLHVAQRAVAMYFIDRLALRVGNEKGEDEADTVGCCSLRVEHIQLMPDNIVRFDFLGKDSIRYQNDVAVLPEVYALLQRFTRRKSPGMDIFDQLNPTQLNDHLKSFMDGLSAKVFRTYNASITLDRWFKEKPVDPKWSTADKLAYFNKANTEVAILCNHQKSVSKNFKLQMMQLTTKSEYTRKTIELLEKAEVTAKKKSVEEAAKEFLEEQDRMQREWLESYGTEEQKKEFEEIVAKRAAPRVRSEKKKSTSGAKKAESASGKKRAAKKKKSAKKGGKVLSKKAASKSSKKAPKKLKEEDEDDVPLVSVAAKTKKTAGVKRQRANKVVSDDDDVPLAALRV
Chain of LdTop1 (Q8WQM6 entry or part of it): as the sequence (Q8WQM6 entry or part of it) above
Chain of LdTop1 (A0A3Q8IHS4 entry or part of it): as the sequence (A0A3Q8IHS4 entry or part of it) above

## Cc1cc2c(c(=O)[nH]1)C(=O)O/C2=C\c1ccc(O)c(O)c1 [Compound 4]
[1]; pre-incubation, 0.62 uM, read-out: % inhibition, mean data
  inhibition at 0.62 µM: 27.4%
[1]; pre-incubation, 1.25 uM, read-out: % inhibition, mean data
  inhibition at 1.25 µM: 49%
[1]; pre-incubation, 2.5 uM, read-out: % inhibition, mean data
  inhibition at 2.5 µM: 65.9%
[1]; pre-incubation, 5 uM, read-out: % inhibition, mean data
  inhibition at 5 µM: 91.2%
[1]; pre-incubation, 10 uM, read-out: % inhibition, mean data
  inhibition at 10 µM: 97.4%
[1]; pre-incubation, 20 uM, read-out: % inhibition, mean data
  inhibition at 20 µM: ~100%
[1]; preincubated with LdTop1 5 min 37 °C before DNA, read-out: EC50, preincubation assay
  EC50: 1.72 ± 0.23 µM
[1]; read-out: % inhibition (CPT 100%), data 1, pre-incubation, 0.62 uM
  inhibition at 0.62 µM: 27.1%
[1]; read-out: % inhibition (CPT 100%), data 1, pre-incubation, 1.25 uM
  inhibition at 1.25 µM: 48.2%
[1]; read-out: % inhibition (CPT 100%), data 1, pre-incubation, 2.5 uM
  inhibition at 2.5 µM: 67.4%
[1]; read-out: % inhibition (CPT 100%), data 1, pre-incubation, 5 uM
  inhibition at 5 µM: 91.4%
[1]; read-out: % inhibition (CPT 100%), data 1, pre-incubation, 10 uM
  inhibition at 10 µM: 97.2%
[1]; read-out: % inhibition (CPT 100%), data 1, pre-incubation, 20 uM
  inhibition at 20 µM: 100%
[1]; read-out: % inhibition (CPT 100%), data 2, pre-incubation, 0.62 uM
  inhibition at 0.62 µM: 27.7%
[1]; read-out: % inhibition (CPT 100%), data 2, pre-incubation, 1.25 uM
  inhibition at 1.25 µM: 49.8%
[1]; read-out: % inhibition (CPT 100%), data 2, pre-incubation, 2.5 uM
  inhibition at 2.5 µM: 64.5%
[1]; read-out: % inhibition (CPT 100%), data 2, pre-incubation, 5 uM
  inhibition at 5 µM: 91%
[1]; read-out: % inhibition (CPT 100%), data 2, pre-incubation, 10 uM
  inhibition at 10 µM: 97.5%
[1]; read-out: % inhibition (CPT 100%), data 2, pre-incubation, 20 uM
  inhibition at 20 µM: 100%
[1]; supplement sheet, pre-incubation, concentrations in uM, read-out: EC50 of 4-PI
  EC50: 1.72 µM
[2]; LdTop1 relaxation, 12.5 uM, read-out: % inhibition, mean data
  inhibition at 12.5 µM: 97.2%
[2]; LdTop1 relaxation, 25 uM, read-out: % inhibition, mean data
  inhibition at 25 µM: 99.9%
[2]; LdTop1 relaxation, 50 uM
  % inhibition (CPT 100%), data 2: 100.001%
[2]; LdTop1 relaxation, 50 uM, read-out: % inhibition, mean data
  inhibition at 50 µM: 100%
[2]; LdTop1 relaxation, 100 uM
  % inhibition (CPT 100%), data 2: 100.003%
[2]; LdTop1 relaxation, 100 uM, read-out: % inhibition, mean data
  inhibition at 100 µM: 100%
[2]; incubated simultaneously with LdTop1 and supercoiled DNA, read-out: EC50, simultaneous assay
  EC50: 3.77 ± 0.27 µM
[2]; plasmid DNA relaxation
  LdTop1 inhibitory activity: considerable activity
[2]; plasmid DNA relaxation, averages of three experiments, read-out: LDTop1 inhibition (EC50)
  EC50: 4 µM and 3.51 µM
[2]; read-out: % inhibition (CPT 100%), data 1, LdTop1 relaxation, 12.5 uM
  inhibition at 12.5 µM: 97.3%
[2]; read-out: % inhibition (CPT 100%), data 1, LdTop1 relaxation, 25 uM
  inhibition at 25 µM: 99.9%
[2]; read-out: % inhibition (CPT 100%), data 1, LdTop1 relaxation, 50 uM
  inhibition at 50 µM: 100%
[2]; read-out: % inhibition (CPT 100%), data 1, LdTop1 relaxation, 100 uM
  inhibition at 100 µM: 100%
[2]; read-out: % inhibition (CPT 100%), data 1, simultaneous, 0.62 uM
  inhibition at 0.62 µM: 7.36%
[2]; read-out: % inhibition (CPT 100%), data 1, simultaneous, 1.25 uM
  inhibition at 1.25 µM: 23.5%
[2]; read-out: % inhibition (CPT 100%), data 1, simultaneous, 2.5 uM
  inhibition at 2.5 µM: 42.8%
[2]; read-out: % inhibition (CPT 100%), data 1, simultaneous, 5 uM
  inhibition at 5 µM: 60.1%
[2]; read-out: % inhibition (CPT 100%), data 1, simultaneous, 10 uM
  inhibition at 10 µM: 88.3%
[2]; read-out: % inhibition (CPT 100%), data 1, simultaneous, 20 uM
  inhibition at 20 µM: 91.6%
[2]; read-out: % inhibition (CPT 100%), data 2, LdTop1 relaxation, 12.5 uM
  inhibition at 12.5 µM: 97.1%
[2]; read-out: % inhibition (CPT 100%), data 2, LdTop1 relaxation, 25 uM
  inhibition at 25 µM: 99.9%
[2]; read-out: % inhibition (CPT 100%), data 2, LdTop1 relaxation, 50 uM
  inhibition at 50 µM: 100%
[2]; read-out: % inhibition (CPT 100%), data 2, LdTop1 relaxation, 100 uM
  inhibition at 100 µM: 100%
[2]; read-out: % inhibition (CPT 100%), data 2, simultaneous, 0.62 uM
  inhibition at 0.62 µM: 8.88%
[2]; read-out: % inhibition (CPT 100%), data 2, simultaneous, 1.25 uM
  inhibition at 1.25 µM: 22.5%
[2]; read-out: % inhibition (CPT 100%), data 2, simultaneous, 2.5 uM
  inhibition at 2.5 µM: 43.7%
[2]; read-out: % inhibition (CPT 100%), data 2, simultaneous, 5 uM
  inhibition at 5 µM: 60.9%
[2]; read-out: % inhibition (CPT 100%), data 2, simultaneous, 10 uM
  inhibition at 10 µM: 86.5%
[2]; read-out: % inhibition (CPT 100%), data 2, simultaneous, 20 uM
  inhibition at 20 µM: 92.9%
[2]; simultaneous, 0.62 uM, read-out: % inhibition, mean data
  inhibition at 0.62 µM: 8.12%
[2]; simultaneous, 1.25 uM, read-out: % inhibition, mean data
  inhibition at 1.25 µM: 23%
[2]; simultaneous, 2.5 uM, read-out: % inhibition, mean data
  inhibition at 2.5 µM: 43.3%
[2]; simultaneous, 5 uM, read-out: % inhibition, mean data
  inhibition at 5 µM: 60.5%
[2]; simultaneous, 10 uM, read-out: % inhibition, mean data
  inhibition at 10 µM: 87.4%
[2]; simultaneous, 20 uM
  % inhibition, mean data: 92.2648%
[2]; simultaneous, 20 uM, read-out: % inhibition, mean data
  inhibition at 20 µM: ~92%
[2]; supplement sheet, simultaneous, concentrations in uM, read-out: EC50 of 4-Sim
  EC50: 3.77 µM
